This note sets out measurements from publication PMC10539361, “Allosteric modulation of the fish taste receptor type 1 (T1R) family by the extracellular chloride ion” (Scientific Reports, 2023).

Changes are numbered by the printed parent chain.

Assay [1] deals with T1, hT1R2/hT1R3 (Homo sapiens, UniProt Q7RTX0+Q8TE23).
T1 construct: expressed in transfected cells
T1 sequence (Q8TE23 20-839): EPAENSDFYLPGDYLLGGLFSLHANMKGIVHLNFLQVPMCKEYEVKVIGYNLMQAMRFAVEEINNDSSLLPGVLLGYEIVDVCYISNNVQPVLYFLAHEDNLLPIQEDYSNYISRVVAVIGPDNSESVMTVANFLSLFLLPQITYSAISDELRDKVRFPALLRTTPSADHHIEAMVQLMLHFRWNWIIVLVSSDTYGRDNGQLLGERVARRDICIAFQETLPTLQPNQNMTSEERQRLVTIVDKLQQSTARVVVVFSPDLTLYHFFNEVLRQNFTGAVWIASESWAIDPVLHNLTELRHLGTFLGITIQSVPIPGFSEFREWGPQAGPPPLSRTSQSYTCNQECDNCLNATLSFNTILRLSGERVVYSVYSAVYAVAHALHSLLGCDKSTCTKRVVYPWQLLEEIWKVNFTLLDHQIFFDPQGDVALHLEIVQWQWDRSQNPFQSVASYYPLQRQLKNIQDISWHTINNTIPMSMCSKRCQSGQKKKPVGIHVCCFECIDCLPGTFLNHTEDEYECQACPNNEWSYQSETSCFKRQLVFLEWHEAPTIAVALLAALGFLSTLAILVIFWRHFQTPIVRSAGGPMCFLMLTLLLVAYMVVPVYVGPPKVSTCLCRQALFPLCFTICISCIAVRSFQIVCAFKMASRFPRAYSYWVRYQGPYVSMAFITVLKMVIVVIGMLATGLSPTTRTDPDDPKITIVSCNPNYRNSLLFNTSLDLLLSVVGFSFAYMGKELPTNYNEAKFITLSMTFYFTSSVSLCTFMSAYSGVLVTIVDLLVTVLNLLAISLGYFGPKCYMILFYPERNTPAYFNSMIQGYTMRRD
T1 sequence (Q7RTX0 21-852): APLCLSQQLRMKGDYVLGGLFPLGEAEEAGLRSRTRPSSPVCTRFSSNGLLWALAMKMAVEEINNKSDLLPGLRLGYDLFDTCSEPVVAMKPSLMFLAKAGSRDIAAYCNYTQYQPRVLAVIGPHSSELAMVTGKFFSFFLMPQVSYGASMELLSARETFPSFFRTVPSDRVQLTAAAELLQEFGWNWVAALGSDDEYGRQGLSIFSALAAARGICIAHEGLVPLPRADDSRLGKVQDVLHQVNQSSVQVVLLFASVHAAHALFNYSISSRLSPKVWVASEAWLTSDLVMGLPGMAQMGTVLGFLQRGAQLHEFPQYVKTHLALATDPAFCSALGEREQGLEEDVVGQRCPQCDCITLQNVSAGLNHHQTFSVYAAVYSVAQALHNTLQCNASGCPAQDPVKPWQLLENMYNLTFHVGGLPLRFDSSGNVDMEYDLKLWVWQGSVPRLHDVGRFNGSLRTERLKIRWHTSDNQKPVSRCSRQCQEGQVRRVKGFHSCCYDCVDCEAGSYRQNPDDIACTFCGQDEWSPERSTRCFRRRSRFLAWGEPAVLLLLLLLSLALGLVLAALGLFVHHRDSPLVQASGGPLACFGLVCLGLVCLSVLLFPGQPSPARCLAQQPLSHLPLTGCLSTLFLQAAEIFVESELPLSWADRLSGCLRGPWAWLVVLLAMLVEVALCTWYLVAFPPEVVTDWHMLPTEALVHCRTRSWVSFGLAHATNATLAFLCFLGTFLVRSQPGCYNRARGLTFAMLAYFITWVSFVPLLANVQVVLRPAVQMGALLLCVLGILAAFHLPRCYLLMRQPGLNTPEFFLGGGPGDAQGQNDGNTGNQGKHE
The assay is described as follows: Ca2+ mobilization dose-response assay, stable cells expressing hT1R2/hT1R3 with G16gust44. In kind it is cell-based. Particulars: for sensitivity in high (141.4 mM) Cl- buffer vs 10 mM Cl- buffer: 10 mM vs 141.4 mM Cl- buffer. In general terms: A change in cytosolic calcium serves as a functional read-out for many receptors and channels.
Description: (§1) The buffers with lower Cl^− were prepared by progressively replacing NaCl, KCl, CaCl2 and MgCl2 in the buffer with gluconate equivalents[20]. The pH was adjusted to 7.4 with NaOH. Ligands were diluted with the assay buffers at the desired concentrations.
Measurements of the responses of the cells by cell-based assay based on the intracellular Ca^2+ mobilization were carried out as described previously with some modifications[20],[34],[46],[47]. […] The cells were seeded in 96-well plates (clear-bottomed CellBIND surface plate, Corning, Glendale, AZ, USA) coated with ε-poly-L-lysine (Cosmo Bio, Tokyo, Japan) at approximately 70,000 cells per well. After 20 h, the medium was removed and replaced with high Cl^− buffer. After 3 h 30 min incubation at 27 °C, cells were loaded with 5 µM calcium-indicator dye Fluo-8 AM (AAT Bioquest, Sunnyvale, CA, USA) diluted in high Cl^− buffer. After incubation for 30 min at 27 °C, the cells were washed with buffers containing appropriate concentrations of Cl^−. The cellular assay was initiated after 3–5 min of resting and was completed within 5 min. The measurements were made using FlexStation 3 (Molecular Devices, Sunnyvale, CA, USA) at 27 °C. Fluorescence changes (i.e., excitation at 485 nm and emission at 525 nm with a cutoff at 515 nm) were monitored at 2 s intervals. A 100-µL aliquot of assay buffer supplemented with 2 × ligands was added at 20 s, and scanning was continued for an additional 40 s. The response of each well was determined as ∆RFU (delta relative fluorescent units), which was calculated as (maximum fluorescent value)—(minimum fluorescent value). […] Such normalized data from more than three independent experiments are reported as the mean ± standard error of the mean (SEM). Dose‒response fitting curves were calculated by Prism 9 (GraphPad Software, San Diego, CA) using nonlinear regression (log(agonist) vs. response—variable slope), based on the integrated data from the several independent experiments.

Assay [2] addresses T2, mfT1R2a/mfT1R3 (Oryzias latipes, UniProt Q2MHK2+Q2MHK5).
T2 sequence (Q2MHK5 20-819): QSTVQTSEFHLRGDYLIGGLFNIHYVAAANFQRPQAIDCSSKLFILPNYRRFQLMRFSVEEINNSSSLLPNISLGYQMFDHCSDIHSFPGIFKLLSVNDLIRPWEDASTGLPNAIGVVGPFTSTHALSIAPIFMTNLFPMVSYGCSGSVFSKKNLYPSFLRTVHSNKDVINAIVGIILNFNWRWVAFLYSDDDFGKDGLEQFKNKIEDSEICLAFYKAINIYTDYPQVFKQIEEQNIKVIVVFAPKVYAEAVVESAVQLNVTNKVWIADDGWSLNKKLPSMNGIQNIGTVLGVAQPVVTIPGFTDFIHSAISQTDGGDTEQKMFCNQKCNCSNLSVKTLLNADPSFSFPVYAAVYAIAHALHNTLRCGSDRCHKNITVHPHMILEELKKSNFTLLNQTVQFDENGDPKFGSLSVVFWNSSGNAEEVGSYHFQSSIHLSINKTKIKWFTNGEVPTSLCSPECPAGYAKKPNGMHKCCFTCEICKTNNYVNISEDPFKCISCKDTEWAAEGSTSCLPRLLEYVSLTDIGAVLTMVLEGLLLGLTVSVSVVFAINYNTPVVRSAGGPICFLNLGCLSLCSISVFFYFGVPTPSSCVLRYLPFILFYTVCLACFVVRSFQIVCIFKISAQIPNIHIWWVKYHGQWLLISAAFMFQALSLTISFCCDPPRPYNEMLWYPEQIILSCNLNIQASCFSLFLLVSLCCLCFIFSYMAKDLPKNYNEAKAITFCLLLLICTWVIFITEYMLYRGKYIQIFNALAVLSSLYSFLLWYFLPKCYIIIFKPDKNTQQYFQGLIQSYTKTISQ
T2 sequence (Q2MHK2 20-853): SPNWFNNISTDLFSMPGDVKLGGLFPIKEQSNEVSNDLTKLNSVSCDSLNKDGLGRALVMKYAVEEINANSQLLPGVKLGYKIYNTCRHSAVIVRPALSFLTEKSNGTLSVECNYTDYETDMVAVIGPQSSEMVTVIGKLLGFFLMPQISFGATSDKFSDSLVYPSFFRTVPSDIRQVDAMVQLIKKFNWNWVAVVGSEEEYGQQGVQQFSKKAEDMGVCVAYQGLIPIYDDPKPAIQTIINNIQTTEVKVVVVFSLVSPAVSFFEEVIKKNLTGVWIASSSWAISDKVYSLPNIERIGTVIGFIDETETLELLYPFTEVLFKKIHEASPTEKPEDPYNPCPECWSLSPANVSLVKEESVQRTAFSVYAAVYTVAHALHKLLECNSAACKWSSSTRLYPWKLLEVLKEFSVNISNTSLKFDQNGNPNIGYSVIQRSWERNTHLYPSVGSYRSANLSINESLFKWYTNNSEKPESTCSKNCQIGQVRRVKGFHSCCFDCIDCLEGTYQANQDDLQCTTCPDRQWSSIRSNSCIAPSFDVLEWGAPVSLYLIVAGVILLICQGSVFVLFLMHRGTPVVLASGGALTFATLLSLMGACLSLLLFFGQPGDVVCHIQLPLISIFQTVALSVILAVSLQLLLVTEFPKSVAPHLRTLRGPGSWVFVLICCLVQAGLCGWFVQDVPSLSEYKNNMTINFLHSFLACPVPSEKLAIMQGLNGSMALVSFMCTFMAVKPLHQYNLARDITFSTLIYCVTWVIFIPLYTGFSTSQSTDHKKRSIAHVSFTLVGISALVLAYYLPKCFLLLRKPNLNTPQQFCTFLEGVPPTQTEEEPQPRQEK
The assay can be described thus: Effect of anions, cations and osmotic pressure on cellular responses, cells in 10 mM Cl- buffer, mfT1R2a/mfT1R3. It counts as cell-based, medaka fish. The method, then:
Cells were seeded in 96-well plates coated with ε-poly-L-lysine at approximately 70,000 cells per well. […] Fluorescence changes were monitored at 2 s intervals, as described above. […] Three independent experiments were conducted for each receptor, and representative results are shown as the mean ± SEM (n = 3 replicates). Statistical tests were conducted using KyPlot version 6.0 (KyensLab Inc., Tokyo, Japan). Statistical significance was set at p < 0.05.

In assay [3] the target is T3, hT1R2/hT1R3 T102E (Homo sapiens, UniProt Q7RTX0+Q8TE23, T102E).
T3 sequence (Q8TE23 20-839): T1 sequence (Q8TE23 20-839)
T3 sequence (Q7RTX0 21-852 T102E): T1 sequence (Q7RTX0 21-852) with T82E
The assay can be described thus: Ca2+ mobilization dose-response assay, site X mutant hT1R2/hT1R3 T102E. Particulars: EC50, [Cl-]o=10 mM; unit inferred.
Description: as §1
Measurements of the responses of the cells by cell-based assay based on the intracellular Ca^2+ mobilization were carried out as described previously with some modifications[20],[34],[46],[47]. Cell lines stably expressing T1R2, T1R3 and chimeric G-protein α-subunit, G16gust44[48], were constructed using the Flp-In pcDNA5/FRT complete system (Thermo Fisher Scientific, Waltham, MA, USA) described in our previous studies[34],[46]. […] Fluorescence changes (i.e., excitation at 485 nm and emission at 525 nm with a cutoff at 515 nm) were monitored at 2 s intervals. […] The response of each well was determined as ∆RFU (delta relative fluorescent units), which was calculated as (maximum fluorescent value)—(minimum fluorescent value). […] Dose‒response fitting curves were calculated by Prism 9 (GraphPad Software, San Diego, CA) using nonlinear regression (log(agonist) vs. response—variable slope), based on the integrated data from the several independent experiments.

As for `N[C@H](Cc1c[nH]c2ccccc12)C(=O)O` [D-tryptophan], the “sensitivity in high (141.4 mM) Cl- buffer vs 10 mM Cl- buffer” value in assay [1] is on record as “comparable”.

On to `[Br-].[Na+]` [NaBr], for which the “additional anion concentration needed to significantly increase the response intensity to L-Gln” value in assay [2] (added to 10 mM Cl- buffer with 200 µM L-Gln) was found to be 5 mM. The “response to fixed concentration of L-Gln on coapplication” value in assay [2] (coapplied with 200 µM L-Gln, cells in 10 mM Cl- buffer, final [Cl-]o up to 60 mM) is listed as “enhanced”. Also, the “cellular response to the salt alone” value in assay [2] (without agonist, cells in 10 mM Cl- buffer) was “did not elicit”.

As usually defined, the EC50 is the concentration needed to bring the measured effect to its halfway point. Consider `OC[C@H]1O[C@H](O[C@]2(CCl)O[C@H](CCl)[C@@H](O)[C@@H]2O)[C@H](O)[C@@H](O)[C@H]1Cl` [sucralose, Sucralose], for which the “sensitivity in high (141.4 mM) Cl- buffer vs 10 mM Cl- buffer” value in assay [1] is “comparable”. Also, the concentration for a half-maximal effect (EC50) in assay [1] ([Cl-]o=10 mM, unit inferred) was found to be 92.5 µM; in assay [3], 169 µM.
